For experiment [1], the system named is KOR. The following applies: after a single injection, result in words; ref [1a]; cited from earlier work.
Experiment [2] has as its target KOR (Mus musculus, UniProt P33534). Put plainly: competition radioligand-binding assay, KOR, [^3H]U69,593, mouse brain membranes.

Square brackets hold non-standard residues; d marks the D form. Peptide text beside a SMILES is read from it.

The values that follow come from PMC3411353 (Tetrahedron letters, 2010).

Consider `NC(N)=Nc1ccc2[nH]c3c(c2c1)C[C@@]1(O)[C@H]2Cc4ccc(O)c5c4[C@@]1(CCN2CC1CC1)[C@H]3O5` [GNTI, 5′-guanidinonaltrindole], for which, in the experiment with KOR [1], the “duration of antagonist activity” value is listed as “lasting for weeks to more than a month”.

Consider `CC(C)[C@@H](CN1CC[C@@](C)(c2cccc(O)c2)[C@@H](C)C1)NC(=O)[C@H]1Cc2ccc(O)cc2CN1` [JDTic, (3R)-7-hydroxy-N-[(1S)-1-[[(3R,4R)-4-(3-hydroxyphenyl)-3,4-dimethyl-1-piperidinyl]methyl]-2-methylpropyl]-1,2,3,4-tetrahydro-3-isoquinolinecarboxamide], for which the “duration of antagonist activity” value in the experiment on KOR [1] was “lasting for weeks to more than a month”.

On to `O=C1N[C@@H](Cc2ccccc2)C(=O)N2CCC[C@@H]2C(=O)N[C@@H](Cc2ccccc2)C(=O)N[C@H]1Cc1c[nH]c2ccccc12` [L-Trp isomer, cyclo[Phe-D-Pro-Phe-Trp]] (cyclo(FWF[dP])), for which the Ki (as a rule, a measure of affinity in units of concentration, obtained from inhibition or displacement) on KOR [2] came out at 21.2 ± 5.6 nM.

For the compound `Oc1ccc2c3c1O[C@H]1c4[nH]c5c(c4C[C@@]4(O)[C@@H](C2)N(CC2CC2)CC[C@]314)C[C@@]1(O)[C@H]2Cc3ccc(O)c4c3[C@@]1(CCN2CC1CC1)[C@H]5O4` [norBNI, norbinaltorphimine], the “duration of antagonist activity” value with KOR [1] is given as “lasting for weeks to more than a month”.
